Experimental data published in patent US20190241569A1, “3-(ARYL OR HETEROARYL) METHYLENEINDOLIN-2-ONE DERIVATIVES AS INHIBITORS OF CANCER STEM CELL PATHWAY KINASES FOR THE TREATMENT OF CANCER” (Boston Biomedical, Inc., priority 2013, published 2019).
Where two headings read alike, the source gives them in different places.

Columns and labels:
Type in all cases: cell-based
[1] = system: A549; experiment: Bulk cancer cells, Cell Titer-Glo 72 hours (Test Example 2); settings: Homo sapiens
Experimental: (§1) Tubes of 3× drug (60 uM in 500 uL complete media) were prepared from 5 mM stock solutions in DMSO. […] To treat cells, 50 uL of drug from the dilution plate was removed and added to the cell plates. […] Cells were harvested 72 hours after drug addition using Cell Titer-Glo (Promega) and luminescence measured on a plate reader.

[2] = system: ACHN; experiment: as above; settings: Homo sapiens, ACHN, 72 h
Experimental: as §1

[3] = system: FaDu; experiment: as above; settings: Homo sapiens
Experimental: as §1

[4] = system: FaDu CSC; experiment: Cancer stem cells, Cell Titer-Glo 72 hours (Test Example 3)
[5] = system: A549 CSC; experiment: as above; settings: Homo sapiens
[6] = system: ACHN CSC; experiment: as above

Compound: Cc1[nH]c(/C=C2\C(=O)Nc3ccc(-c4cnn(-c5ccccc5)c4)cc32)c(C)c1C(=O)N1CCN(C)CC1 [Example 6]
- IC50 [1]: 6.91 µM
- IC50 [2]: 3.4 µM
- IC50 [3]: 3.62 µM
- IC50 ([4]; Homo sapiens, FaDu, 72 h): 0.31 µM
- IC50 [5]: 4.49 µM

Compound: Cc1[nH]c(/C=C2\C(=O)Nc3ccc(-c4cnn(-c5ccccn5)c4)cc32)c(C)c1C(=O)N1CCN(C)CC1 [Example 31]
- IC50 [1]: 18.9 µM
- IC50 [3]: 3.67 µM
- IC50 ([4]; Homo sapiens, FaDu, 72 h): 0.24 µM
- IC50 [5]: 11.7 µM

Compound: CCN(CC)CCNC(=O)c1c(C)[nH]c(/C=C2\C(=O)Nc3ccc(C4CCN(c5ccccc5)CC4)cc32)c1C [Example 42]
- IC50 [1]: 16 µM
- IC50 [3]: 1.89 µM
- IC50 ([4]; Homo sapiens, FaDu, 72 h): 1.3 µM

Compound: CCN(CC)CCNC(=O)c1c(C)[nH]c(/C=C2\C(=O)Nc3ccc(C4CCN(C5CCN(C(C)=O)CC5)CC4)cc32)c1C [Example 45]
- IC50 [1]: 29.6 µM
- IC50 [2]: 4.8 µM
- IC50 [3]: 3.32 µM
- IC50 ([4]; Homo sapiens, FaDu, 72 h): 1 µM

Compound: CCN(CC)CCNC(=O)c1c(C)[nH]c(/C=C2\C(=O)Nc3ccc(-c4cn(-c5ccccc5)nn4)cc32)c1C [Example 48]
- IC50 [1]: 4.88 µM
- IC50 [2]: 4.73 µM
- IC50 [3]: 6.74 µM
- IC50 ([4]; Homo sapiens, FaDu, 72 h): 2.9 µM

Compound: CCN(CC)CCNC(=O)c1c(C)[nH]c(/C=C2\C(=O)Nc3ccc(-c4nnc(-c5ccccc5)s4)cc32)c1C [Example 52]
- IC50 [1]: 48.9 µM
- IC50 [3]: 2.15 µM
- IC50 ([4]; Homo sapiens, FaDu, 72 h): 0.23 µM

Compound: Cc1ccc(-c2nc(-c3ccc4c(c3)/C(=C/c3[nH]c(C)c(C(=O)N5CCN(C)CC5)c3C)C(=O)N4)cs2)cc1 [Example 104]
- IC50 [1]: 8.55 µM
- IC50 [2]: 4.25 µM
- IC50 [3]: 7.87 µM
- IC50 ([4]; Homo sapiens, FaDu, 72 h): 1.98 µM
- IC50 [5]: 0.45 µM

Compound: CCN(CC)CCNC(=O)c1ccc(/C=C2\C(=O)Nc3ccc(-c4csc(-c5ccccc5)n4)cc32)[nH]c1=O [Example 121]
- IC50 [1]: 3.64 µM
- IC50 [2]: 3.31 µM
- IC50 [3]: 3.1 µM
- IC50 ([4]; Homo sapiens, FaDu, 72 h): 6.15 µM

Compound: CCN(CC)CCNC(=O)c1c(C)[nH]c(/C=C2\C(=O)Nc3ccc(-c4csc(C5CCNC5)n4)cc32)c1C (stereo not drawn) [Example 133]
- IC50 [1]: 0.72 µM
- IC50 [2]: 6.75 µM
- IC50 [3]: 2.42 µM
- IC50 [5]: 32.5 µM

Compound: COC(=O)c1c(C)[nH]c(/C=C2\C(=O)Nc3ccc(-c4csc(-c5ccccc5)n4)cc32)c1C [Example 141]
- IC50 [1]: 16.3 µM
- IC50 [2]: 1.16 µM
- IC50 [3]: 21.8 µM

Compound: Cc1[nH]c(/C=C2\C(=O)Nc3ccc(-c4csc(-c5ccccc5)n4)cc32)c(C)c1CCC(=O)O [Example 148]
- IC50 [5]: 1.65 µM

Compound: O=C1Nc2ccc(-c3csc(-c4ccccc4)n3)cc2/C1=C/c1cnc[nH]1 [Example 151]
- IC50 [1]: 11.2 µM
- IC50 [2]: 8.74 µM
- IC50 [3]: 6.14 µM
- IC50 ([4]; Homo sapiens, FaDu, 72 h): 6.32 µM
- IC50 [5]: 0.9 µM

Compound: O=C1Nc2ccc(-c3csc(-c4ccncc4)n3)cc2/C1=C/c1cc2c([nH]1)CCCC2 [Example 156]
- IC50 [2]: 37.8 µM
- IC50 [5]: 0.8 µM

Compound: CCOC(=O)c1cc(C)c(/C=C2\C(=O)Nc3ccc(-c4csc(-c5ccccc5)n4)cc32)[nH]1 [Example 161]
- IC50 [1]: 40 µM
- IC50 [2]: 0.39 µM
- IC50 [3]: 13.5 µM
- IC50 [5]: 13.2 µM

Compound: O=C1Nc2ccc(-c3csc(-c4ccccc4)n3)cc2/C1=C/c1[nH]cc2ccccc12 [Example 162]
- IC50 ([4]; Homo sapiens, FaDu, 72 h): 5.04 µM
- IC50 ([6]; Homo sapiens, ACHN, 72 h): 4.08 µM

Compound: CCOC(=O)c1[nH]c(/C=C2\C(=O)Nc3ccc(-c4csc(-c5ccccc5)n4)cc32)c2c1CCCC2 [Example 164]
- IC50 [2]: 0.83 µM
- IC50 ([4]; Homo sapiens, FaDu, 72 h): 2.91 µM
- IC50 ([6]; Homo sapiens, ACHN, 72 h): 1.6 µM

Compound: O=C1Nc2ccc(-c3csc(-c4ccncc4)n3)cc2/C1=C/c1ccc(N2CCNCC2)cc1 [Example 170]
- IC50 [1]: 8.73 µM
- IC50 [3]: 25.2 µM

Compound: O=C1Nc2ccc(-c3csc(-c4ccccc4)n3)cc2/C1=C/c1ccc(N2CCNCC2)cc1 [Example 171]
- IC50 [1]: 5.79 µM
- IC50 [3]: 2.59 µM

Compound: CCN(CC)CCN1CCCc2[nH]c(/C=C3\C(=O)Nc4ccc(-c5csc(-c6ccccc6)n5)cc43)c(C)c2C1=O [Example 176]
- IC50 [1]: 18 µM
- IC50 [3]: 5.31 µM

Compound: CCN(CC)CCN1CCCc2[nH]c(/C=C3\C(=O)Nc4ccc(-c5csc(C6CCNCC6)n5)cc43)c(C)c2C1=O [Example 178]
- IC50 [1]: 7.06 µM
- IC50 [3]: 8.67 µM
- IC50 ([6]; Homo sapiens, ACHN, 72 h): 11.9 µM

Compound: CCN(CC)CCNC(=O)c1c(C)[nH]c(/C=C2\C(=O)Nc3ccc(-c4cnc(-c5ccccc5)cn4)cc32)c1C [Example 199]
- IC50 [1]: 16.9 µM
- IC50 [2]: 25.8 µM
- IC50 [3]: 17.5 µM
- IC50 ([4]; Homo sapiens, FaDu, 72 h): 39.1 µM
- IC50 [5]: 43.6 µM

Compound: CCN(CC)CCNC(=O)c1c(C)[nH]c(/C=C2\C(=O)Nc3ccc(-c4cnc(SC)cn4)cc32)c1C [Example 201]
- IC50 [1]: 6.06 µM
- IC50 [2]: 12.3 µM
- IC50 [3]: 5.96 µM
- IC50 [5]: 30 µM

Compound: Cc1cc(C)c(/C=C2\C(=O)Nc3ccc(-c4cncnc4)cc32)[nH]1 [Example 212]
- IC50 [1]: 20.8 µM
- IC50 [2]: 12.8 µM

Compound: Cc1ccc(-c2ccc3c(c2)/C(=C/c2[nH]c(C)cc2C)C(=O)N3)cn1 [Example 213]
- IC50 [1]: 25.8 µM
- IC50 [2]: 24.9 µM
- IC50 [6]: 0.01 µM

Compound: Cc1ccc(-c2ccc3c(c2)/C(=C/c2[nH]c(C)cc2C)C(=O)N3)nc1 [Example 216]
- IC50 [3]: 37.3 µM
- IC50 ([6]; Homo sapiens, ACHN, 72 h): 0.05 µM

Compound: Cc1cc(C)c(/C=C2\C(=O)Nc3ccc(-c4cnc5ccccc5n4)cc32)[nH]1 [Example 217]
- IC50 [1]: 7.89 µM
- IC50 [2]: 10.6 µM
- IC50 [3]: 25.8 µM
- IC50 ([4]; Homo sapiens, FaDu, 72 h): 0.09 µM

Compound: Cc1cc(C)c(/C=C2\C(=O)Nc3ccc(-c4nccc5ccccc45)cc32)[nH]1 [Example 219]
- IC50 [1]: 18.4 µM
- IC50 [3]: 23.5 µM

Compound: Cc1cc(C)c(/C=C2\C(=O)Nc3ccc(-c4cnsc4)cc32)[nH]1 [Example 220]
- IC50 [2]: 42.8 µM
- IC50 [3]: 26.7 µM
- IC50 ([4]; Homo sapiens, FaDu, 72 h): 43.4 µM
- IC50 ([6]; Homo sapiens, ACHN, 72 h): 17.1 µM

Compound: CSc1cnc(-c2ccc3c(c2)/C(=C/c2[nH]c(C)cc2C)C(=O)N3)cn1 [Example 221]
- IC50 [1]: 35.8 µM
- IC50 [2]: 0.16 µM
- IC50 ([6]; Homo sapiens, ACHN, 72 h): 18.3 µM

Compound: Cc1cc(C)c(/C=C2\C(=O)Nc3ccc(-c4cc(-c5ccccc5)ccn4)cc32)[nH]1 [Example 223]
- IC50 [1]: 13.8 µM
- IC50 [3]: 22.4 µM
- IC50 [5]: 35.7 µM

Compound: Cc1cc(C)c(/C=C2\C(=O)Nc3ccc(-c4cnc5ccccn45)cc32)[nH]1 [Example 224]
- IC50 [1]: 16.6 µM
- IC50 [2]: 25.2 µM
- IC50 [3]: 11.4 µM
- IC50 ([4]; Homo sapiens, FaDu, 72 h): 17 µM
- IC50 [5]: 20.2 µM

Compound: Cc1cc(C)c(/C=C2\C(=O)Nc3ccc(-c4ncccc4C)cc32)[nH]1 [Example 225]
- IC50 [4]: 47.4 µM
- IC50 [6]: 0.01 µM

Compound: Cc1cc(C)c(/C=C2\C(=O)Nc3ccc(-c4ccccn4)cc32)[nH]1 [Example 226]
- IC50 ([6]; Homo sapiens, ACHN, 72 h): 0.02 µM

Compound: Cc1cc(C)c(/C=C2\C(=O)Nc3ccc(-c4csc(-n5cccn5)n4)cc32)[nH]1 [Example 232]
- IC50 [1]: 9.76 µM
- IC50 [2]: 9 µM
- IC50 [3]: 20.8 µM
- IC50 ([4]; Homo sapiens, FaDu, 72 h): 27.2 µM
- IC50 [5]: 16.2 µM

Compound: Cc1cc(C)c(/C=C2\C(=O)Nc3ccc(-c4cnc(-c5ccccc5)cn4)cc32)[nH]1 [Example 233]
- IC50 ([6]; Homo sapiens, ACHN, 72 h): 6.8 µM

Compound: Cc1cc(C)c(/C=C2\C(=O)Nc3ccc(-c4cnc5cccnn45)cc32)[nH]1 [Example 234]
- IC50 [1]: 12.5 µM
- IC50 [3]: 5.23 µM
- IC50 ([4]; Homo sapiens, FaDu, 72 h): 1.55 µM
- IC50 [5]: 8.66 µM

Compound: Cc1cc(C)c(/C=C2\C(=O)Nc3ccc(-c4nc5ccccc5s4)cc32)[nH]1 [Example 235]
- IC50 [1]: 16.1 µM
- IC50 [2]: 14.7 µM
- IC50 [3]: 26.8 µM

Compound: Cc1cc(C)c(/C=C2\C(=O)Nc3ccc(-c4ncccn4)cc32)[nH]1 [Example 236]
- IC50 [2]: 25.3 µM
- IC50 [3]: 26.1 µM
- IC50 ([4]; Homo sapiens, FaDu, 72 h): 25.2 µM
- IC50 [5]: 28.7 µM

Compound: Cc1cc(C)c(/C=C2\C(=O)Nc3ccc(-c4ccncc4)cc32)[nH]1 [Example 238]
- IC50 ([6]; Homo sapiens, ACHN, 72 h): 6.95 µM

Compound: Cc1cc(C)c(/C=C2\C(=O)Nc3cc(-c4ccncc4)ccc32)[nH]1 [Example 250]
- IC50 [3]: 18.4 µM
- IC50 [5]: 0.98 µM

Compound: Cc1cc(C)c(/C=C2\C(=O)Nc3ccc(-c4cccc5ncccc45)cc32)[nH]1 [Example 259]
- IC50 [1]: 11.1 µM
- IC50 [2]: 13.2 µM
- IC50 [3]: 13.4 µM
- IC50 ([4]; Homo sapiens, FaDu, 72 h): 13.1 µM
- IC50 [5]: 40 µM

Compound: Cc1cc(C)c(/C=C2\C(=O)Nc3ccc(-c4ccc(C=O)cc4)cc32)[nH]1 [Example 262]
- IC50 [1]: 29.2 µM
- IC50 [3]: 26.8 µM
